# Data reported in patent US20120329865A1, “MOLECULES RELATED hERG ION [sequence] AND THE USE THEREOF” (priority 2009, published 2012).
# Entries after “also recorded” stand apart in the source; their conditions may differ. Read-outs that look alike come from different tables or passages of the source.
# Tests used:
# [1] = target: T1, hERG ion channels (Homo sapiens, UniProt Q12809)
# Description: (§2) Label-free RWG biosensor cellular assays were developed to directly assaying the activation and its subsequent signaling of hERG channels without applying voltages to the cells. […] Generally, the disclosed methods to characterize modulators acting directly through hERG ion channel, or indirectly via hERG-associated signaling complexes are related to label-free biosensor cellular assays. Disclosed is the use of three types of cells: a cancerous cell line endogenously expressing hERG ion channels, a native cell line without endogenous hERG channels and its engineered cell line overexpressing hERG channels, for characterizing hERG modulators. Also disclosed is the use of mallotoxin or other hERG activator as a readout to further confirm the modes of action of hERG modulators.
# (§3) In a specific approach, any compound can be profiled in three different types of cells, HT29, HEK-hERG, and HEK-293 cells, in both agonism and antagonism modes. The human colon cancerous cell line HT-29 is known to endogenously express hERG channels. HEK293 is a native cell line without endogenously expressed hERG channels, while HEK-hERG is an engineered HEK293 cell having stably expressed hERG channels.
# [2] = target: T1, hERG ion channels; experiment: Label-free biosensor hERG modulator classification from profiles in HT29, HEK-hERG and HEK293 cells plus mallotoxin modulation; settings: label-free biosensor cellular assays
# Description: as §2, §3
# [3] = target: T1, hERG ion channels; experiment: Rb+ flux assay using HEK-hERG cells; settings: 5 mM KCl, modulators at 10 or 50 micromolar (FIG. 3)
# Experimental: Briefly, 50,000 cells per well were plated in 96-well tissue culture treated plates 20 hours before assay. In the next day, cells were incubated with complete cell culture medium containing 5 mM RbCl for 3 hours at 37° C. with 5% CO2. Then compounds (10×) diluted in HBSS were added into the cell culture medium and cells were incubated at 37° C. with 5% CO2 for another hour. Cells were washed twice with Rb^+ free cell culture medium and incubated with 180 μl/well of cell culture medium containing different concentration of KCl for exactly 10 minutes. The supernatant from each well was transferred to a new 96 well plate immediately. Cells were lysed with 180 μl/well 0.5% Triton100 in HBSS. The Rb^+ concentration of each sample was determined by ICR8000 (Aurora Biomed Inc.).
# [4] = target: T1, hERG ion channels; experiment: DMR antagonism mode: modulation of the mallotoxin DMR signal in HEK-hERG cells; settings: for effect on the mallotoxin DMR signal in HEK-hERG cells (in words): antagonism assay; for score of modulation index, HEK-hERG coordinate: score assigned from % modulation of mallotoxin DMR (10% = 1)
# [5] = target: T1, hERG ion channels; experiment: Label-free RWG biosensor (Epic) DMR assay, agonism mode, HT29 cells endogenously expressing hERG; settings: 10 micromolar
# Description: (§4) Using the RWG biosensor Corning® Epic® system, all compounds were systematically characterized for their ability to modulate hERG ion channels in live cells. The Epic® system consists of a temperature-control unit, an optical detection unit, with an on-board liquid handling unit with robotics, or an external liquid accessory system with robotics. The detection unit is centered on integrated fiber optics, and enables kinetic measures of cellular responses with a time interval of ˜7 or 15 sec. The compound solutions were introduced by using either the on-board liquid handling unit, or the external liquid accessory system; both of which use conventional pippetting system.
# (§5) Epic® wavelength interrogation system (Corning Inc., Corning, N.Y.) was used for whole cell sensing. This system consists of a temperature-control unit, an optical detection unit, and an on-board liquid handling unit with robotics. The detection unit is centered on integrated fiber optics, and enables kinetic measures of cellular responses with a time interval of ˜15 sec.
# (§6) Cells were plated in 384-well Epic® cell culture treated plate (Corning Cat#5040) 16-20 hours before assay (15000 cells/well for HEK293 and HEK-hERG cells, 30000 cells/well for HT29 cells). For both HEK-hERG and its parental HEK293 cells, each well was coated with 10 μl 5 μg/ml fibronectin. One hour before assay, cells were washed twice on a BioTek ELx405 Select washer with Hank's Balanced Salt Solution (HBSS) containing 20 mM Hepes. Cells were incubated in 40 μl/well HBSS at 28° C. inside the Epic system for one hour. For each assay, a 2-min baseline was initiated, followed by addition of 10 μl compound solutions (5×) and the cell responses were recorded continuously for one hour.
# (§7) All studies were carried out at a controlled temperature (28° C.). At least two independent sets of experiments, each with at least three replicates, were performed. […] All dose-dependent responses were analyzed using non-linear regression method with the GraphPad Prism 5.
# as §3
# [6] = target: T1, hERG ion channels; experiment: Label-free RWG biosensor (Epic) DMR assay, agonism mode, HEK-hERG cells stably expressing hERG; settings: 10 micromolar
# Description: as §4, §5, §6, §7, §3
# [7] = system: MCF7; experiment: Cell proliferation assay (CellTiter-Glo) in MCF7; format: cell-based; settings: 48 h exposure; data not shown
# Experimental: (§1) Proliferation was measured using the CellTiter-Glo Luminescent Cell Viability Assay (Technical Bulletin #288, Promega, Madison, Wis.). When added to cells, the assay reagent produces luminescence in the presence of ATP from viable cells. Cells were plated in 96-well Corning Costar TCT (tissue culture treated) plates at a density of 10,000 cells/well and incubated for 24 h. Test samples were solubilized in dimethyl sulfoxide (DMSO) by sonication, filter sterilized and diluted with media to the desired treatment concentration. Cells were treated with 100 μl control media, or test samples, and incubated for 48 h drug exposure duration. At the end of 48 h, plates were equilibrated at room temperature for 30 min, 100 μl of the assay reagent was added to each well and cell lysis was induced on an orbital shaker for 2 min. Plates were incubated at room temperature for 10 min to stabilize the luminescence signal and results were read on an Perkin Elmer Vector 3 Microplate Reader. All plates had control wells containing medium without cells to obtain a value for background luminescence. Data are expressed as for three replications.
# [8] = target: T1, hERG ion channels; experiment: DMR antagonism mode: modulation of the mallotoxin DMR signal in HT29 cells; settings: for effect on the mallotoxin DMR signal in HT29 cells (in words): antagonism assay; for score of modulation index, HT29 coordinate: score assigned from % modulation of mallotoxin DMR (10% = 1)
# [9] = system: HT29; experiment: Cell proliferation assay (CellTiter-Glo) in HT29; format: cell-based, human; settings: for cytotoxicity on cancer cell line HT29: 25 micromolar, in vitro culture; for cell apoptosis or alteration in cell proliferation rate, HT29: 48 h exposure
# Experimental: as §1
# [10] = target: hERG channel (Homo sapiens, UniProt Q12809); experiment: Automated patch clamp recording using IonWorks, CHO-hERG cells; settings: 50 micromolar; tail current at -35 mV after +40 mV depolarization
# Sequence of hERG channel (Q12809 whole entry): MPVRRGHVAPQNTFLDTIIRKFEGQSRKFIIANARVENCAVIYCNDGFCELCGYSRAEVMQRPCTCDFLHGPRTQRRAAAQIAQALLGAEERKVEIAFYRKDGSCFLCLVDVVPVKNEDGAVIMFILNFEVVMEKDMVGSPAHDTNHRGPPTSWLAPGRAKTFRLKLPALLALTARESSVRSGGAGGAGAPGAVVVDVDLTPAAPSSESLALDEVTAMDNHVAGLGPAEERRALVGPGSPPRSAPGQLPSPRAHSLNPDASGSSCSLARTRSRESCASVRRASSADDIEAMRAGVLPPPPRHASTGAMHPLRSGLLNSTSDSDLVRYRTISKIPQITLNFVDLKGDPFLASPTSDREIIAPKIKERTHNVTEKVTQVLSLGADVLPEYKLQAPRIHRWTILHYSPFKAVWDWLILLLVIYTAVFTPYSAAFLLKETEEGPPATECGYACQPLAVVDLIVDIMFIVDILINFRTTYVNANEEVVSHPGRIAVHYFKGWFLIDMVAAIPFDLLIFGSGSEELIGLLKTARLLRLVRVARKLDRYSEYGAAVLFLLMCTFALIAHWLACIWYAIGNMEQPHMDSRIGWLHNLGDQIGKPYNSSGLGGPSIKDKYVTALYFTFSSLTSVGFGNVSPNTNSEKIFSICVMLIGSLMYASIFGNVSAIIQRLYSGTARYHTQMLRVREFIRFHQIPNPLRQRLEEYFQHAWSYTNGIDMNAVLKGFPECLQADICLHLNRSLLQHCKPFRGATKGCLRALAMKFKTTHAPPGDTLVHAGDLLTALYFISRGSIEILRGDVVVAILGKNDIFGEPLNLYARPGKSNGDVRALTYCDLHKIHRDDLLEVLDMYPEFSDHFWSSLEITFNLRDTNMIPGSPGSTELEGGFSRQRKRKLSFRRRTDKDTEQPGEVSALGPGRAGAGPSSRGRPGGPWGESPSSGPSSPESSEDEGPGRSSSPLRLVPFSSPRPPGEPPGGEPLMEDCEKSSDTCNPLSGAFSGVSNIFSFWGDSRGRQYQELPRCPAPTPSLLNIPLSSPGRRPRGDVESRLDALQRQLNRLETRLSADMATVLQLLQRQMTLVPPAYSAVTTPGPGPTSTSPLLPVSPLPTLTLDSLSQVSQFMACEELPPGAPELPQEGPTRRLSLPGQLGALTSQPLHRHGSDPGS
# Experimental: CHO-K1 cells stably expressing hERG channel (CHO-hERG) were cultured in T175 flask till about 70% confluent. Cells were washed twice with PBS, then 2.5 ml 0.25% Trypsin/EDTA was mixed with 2.5 ml PBS and added to the T175 flask. Cells were incubated about 2 minutes with the diluted Trypsin/EDTA solution at 37° C., then were continuously incubated about 3 minutes at room temperature. 20 ml fresh medium were added to suspend the cells and transfer to a 50 ml tube. Cells were centrifuged down at 750 rpm for 5 minutes. The extra medium was removed and cells were resuspended in 6 ml External Buffer (137 mM NaCl, 4 mM KCl, 1.8 mM CaCl2, 1 mM MgCl2, 10 mM HEPES, 10 mM glucose, pH 7.4). Then cells were centrifuged again at 450 rpm for another 5 minutes. Finally cells were resuspended in 4 ml the External Buffer, cell number was counted using a hemacytometer. Cell suspension was diluted to 2.5×10^6 cells/ml with the External Buffer. 4 ml of the resuspended cells were added to the cell reservoir in IonWorks. The Internal solution used contains: 40 mM KCl, 100 mM K-Gluconate, 3.2 mM MgCl2, 2 mM CaCl2, 5 mM HEPES, pH 7.25 (adjusted with KOH). […]
# hERG currents were recorded on IonWorks Quattro (Molecular Devices). […] Tail currents were measured during an ensuing return to −35 mV. […]
# [11] = molecule 10 micromolar, mallotoxin 16 micromolar
# T1 sequence (Q12809 whole entry): as above
compound,measurement,setting,value
"CC1=C(C#N)C(=C(C#N)C#N)OC1(C)c1ccc(Cl)cc1Cl (stereo not drawn) [Compound G, 2-dicyanomethylene-3-cyano-4,5-dimethyl-5-[2′,4′-dichlorophenyl]-2,5-dihydrofuran]",melting point,,239 to 240 °C
"N#CC(C#N)=Cc1ccc([N+](=O)[O-])c(O)c1 [AG126, reference compound]",class of hERG modulator assigned,[1],hERG pathway activator
"O=C(O)CC1CCC(c2ccc(-c3cc(C(F)(F)F)[nH]n3)cc2)CC1 (stereo not drawn) [Compound A-935142, reference compound]",class of hERG modulator assigned,[1],label-free biosensor hERG activators
"O=C(O)c1ccccc1Nc1ccc(CCc2ccc(Cl)c(Cl)c2)cc1 [PD-118057, reference compound]",class of hERG modulator assigned,[1],label-free biosensor hERG activators
CC(=O)c1c(O)c(C)c(O)c(Cc2c(O)c3c(c(C(=O)/C=C/c4ccccc4)c2O)OC(C)(C)C=C3)c1O [mallotoxin],class of hERG modulator assigned,[2],label free biosensor hERG activator
same,Rb+ flux signal,[3],significant increase
CC1=C(C#N)C(=C(C#N)C#N)OC1(C)c1ccc(F)cc1 (stereo not drawn) [C],class of hERG modulator assigned,[1],label-free biosensor hERG activator
"CC1=C(C#N)C(=C(C#N)C#N)OC1(C)c1ccc(F)cc1F (stereo not drawn) [Compound D, 2-dicyanomethylene-3-cyano-4,5-dimethyl-5-[2′,4′-difluorophenyl]-2,5-dihydrofuran]",effect on the mallotoxin DMR signal in HEK-hERG cells (in words),[4]; [11],attenuated signal
same,DMR signal in HT29 cells,[5],robust DMR signals
same,DMR signal in HEK-hERG cells,[6],robust DMR signals
same,"cell apoptosis or alteration in cell proliferation rate, MCF7",[7],did not lead to cell apoptosis or any alteration in cell proliferation rate
same,effect on the mallotoxin DMR signal in HT29 cells (in words),[8]; [11],attenuated signal
same,Rb+ flux signal,[3],small but detectable increase
same,cytotoxicity on cancer cell line HT29,[9],did not exhibit cytotoxicity
same,"cell apoptosis or alteration in cell proliferation rate, HT29",[9],did not lead to cell apoptosis or any alteration in cell proliferation rate
O=C(Nc1cc(C(F)(F)F)ccc1O)Nc1cc(C(F)(F)F)ccc1O [NS1643],class of hERG modulator assigned,[2],label-free biosensor hERG activators
"CC1=C(C#N)C(=C(C#N)C#N)OC12CCCCC2 [Compound U, 2-dicyanomethylene-3-cyano-4-methyl-5-spiro-cyclohexyl-2,5-dihydrofuran]",class of hERG modulator assigned,[1],label-free biosensor hERG activator
same,"cell apoptosis or alteration in cell proliferation rate, MCF7",[7],did not lead to cell apoptosis or any alteration in cell proliferation rate
same,cytotoxicity on cancer cell line HT29,[9],did not exhibit cytotoxicity
same,"cell apoptosis or alteration in cell proliferation rate, HT29",[9],did not lead to cell apoptosis or any alteration in cell proliferation rate
CC1=C(C#N)C(=C(C#N)C#N)OC1(C)C [A],class of hERG modulator assigned,[1],label-free biosensor hERG activator
"O=C(O)c1cc(-c2ccc(F)cc2F)ccc1O [diflunisal, reference compound]","score of modulation index, HEK-hERG coordinate",[4],1
same,"score of modulation index, HT29 coordinate",[8],−9
CC1=C/C(=C/C=C/C2=C(C#N)C(=C(C#N)C#N)OC2(C)c2ccc(C3CCCCC3)cc2)CC(C)(C)C1 (stereo not drawn) [Compound I],class of hERG modulator assigned,[1],label-free biosensor hERG activator
"O=C(O)c1cccnc1Nc1ccc2c(c1)CN(c1ccc(Cl)c(Cl)c1)C2 [PD-307243, reference compound]",class of hERG modulator assigned,[1],label-free biosensor hERG activators
CN(CCOc1ccc(NS(C)(=O)=O)cc1)CCc1ccc(NS(C)(=O)=O)cc1 [dofetilide],Rb+ flux signal,[3],suppression
CN(CCO)c1ccc(/C=C/C2=C(C#N)C(=C(C#N)C#N)OC2(C)c2c(F)c(F)c(F)c(F)c2F)cc1 (stereo not drawn) [J],class of hERG modulator assigned,[1],label-free biosensor hERG activator
O=C(O)c1ccccc1Nc1cccc(C(F)(F)F)c1 [flufenamic acid],class of hERG modulator assigned,[2],"hERG pathway activator, a label free biosensor hERG activator; also recorded: weak hERG activator"
same,effect on hERG current (tail current),[10],weak hERG current activator; also recorded: potentiated
same,modulation index against the mallotoxin DMR signal in HEK-hERG,[4]; [11],~+12%
same,"score of modulation index, HEK-hERG coordinate",[4],1
same,DMR signal in HT29 cells,[5],robust DMR signals
same,DMR signal in HEK-hERG cells,[6],robust DMR signals
same,modulation index against the mallotoxin DMR signal in HT29,[8]; [11],−90%
same,effect on the mallotoxin DMR signal in HT29 cells (in words),[8]; [11],selectively attenuated
same,"score of modulation index, HT29 coordinate",[8],−9
same,Rb+ flux signal,[3],weak hERG ion flux activator; also recorded: small and dose-dependent increase
CC1=C(C#N)C(=C(C#N)C#N)OC1(C)c1ccc(Cl)c(Cl)c1Cl (stereo not drawn) [H],class of hERG modulator assigned,[1],label-free biosensor hERG activator
"CCCCc1ccc(C2(C)OC(=C(C#N)C#N)C(C#N)=C2C)cc1 (stereo not drawn) [Compound E, 2-dicyanomethylene-3-cyano-4,5-dimethyl-5-[4′-n-butylphenyl]-2,5-dihydrofuran]",class of hERG modulator assigned,[1],hERG activators
same,effect on the mallotoxin DMR signal in HEK-hERG cells (in words),[4]; [11],attenuated signal
same,DMR signal in HT29 cells,[5],robust DMR signals
same,DMR signal in HEK-hERG cells,[6],robust DMR signals
same,"cell apoptosis or alteration in cell proliferation rate, MCF7",[7],did not lead to cell apoptosis or any alteration in cell proliferation rate
same,effect on the mallotoxin DMR signal in HT29 cells (in words),[8]; [11],attenuated signal
same,Rb+ flux signal,[3],small but detectable increase
same,cytotoxicity on cancer cell line HT29,[9],did not exhibit cytotoxicity
same,"cell apoptosis or alteration in cell proliferation rate, HT29",[9],did not lead to cell apoptosis or any alteration in cell proliferation rate
"CC1=C(C#N)C(=C(C#N)C#N)OC1(C)c1ccc(Cl)c(Cl)c1 (stereo not drawn) [Compound F, 2-dicyanomethylene-3-cyano-4,5-dimethyl-5-[3′,4′-dichlorophenyl]-2,5-dihydrofuran]",class of hERG modulator assigned,[1],label-free biosensor hERG activator
"COc1ccc2nccc(C(=O)CC[C@@H]3CCN(CC#Cc4cc(F)cc(F)c4F)C[C@@H]3C(=O)O)c2c1 [RPR260243, reference compound]",class of hERG modulator assigned,[1],label-free biosensor hERG activators
"CC1=C(C#N)C(=C(C#N)C#N)OC1(c1ccccc1)C(F)(F)F (stereo not drawn) [Compound B, 2-dicyanomethylene-3-cyano-4-methyl-5-phenyl-5-perfluoromethyl-2,5-dihydrofuran]",class of hERG modulator assigned,[1],potent label-free biosensor hERG activator
same,effect on the mallotoxin DMR signal in HEK-hERG cells (in words),[4]; [11],desensitization
same,DMR signal in HT29 cells,[5],robust DMR signals
same,DMR signal in HEK-hERG cells,[6],robust DMR signals
same,effect on the mallotoxin DMR signal in HT29 cells (in words),[8]; [11],desensitization
